Measurements as given in patent US12559489B2, “Antagonistic small molecule compound having toll-like receptor 7/9 inhibitory function” (AJOU UNIVERSITY INDUSTRY-ACADEMIC COOPERATION FOUNDATION, priority 2020, dated 2026).
Read-outs that look alike come from different tables or passages of the source.

Tests used:
RAW264.7 cells = test: MTT cytotoxicity assay in RAW264.7 cells; format: cell-based, murine; conditions: RAW264.7 cells, 1, 10 and 50 μM, 24 hours (FIG. 7A)
Protocol: (§1) RAW264.7 cells, which are murine macrophages (ATCC, Manassas, VA, USA), were incubated in low-glucose DMEM (Thermo Fisher Scientific Inc.) supplemented with 10% FBS, 100 IU/ml of penicillin and 100 μg/ml of streptomycin in an incubator. Imiquimod (IMQ; TLR7 agonist) and CpG-ODN (ODN 2395; TLR9 agonist) were obtained from InvivoGen (San Diego, CA, USA), and hydroxychloroquine (HCQ; endosomal TLRs inhibitor) was obtained from Sigma Aldrich Co. (St. Louis, MO, USA).
(§2) RAW264.7 cells were incubated along with 1, 10 or 50 μM of a compound. After 24 hours, MTT (3-(4,5-dimethylthiazol-2-yl)-2,5-diphenyltetrazolium bromide) assay and enzyme-linked immunosorbent assay (ELISA) were sequentially performed.

TLR9 = molecular target: T1, TLR9 (Mus musculus, UniProt Q9EQU3); test: Inhibition of ODN 2395 (TLR9 agonist)-induced TNF-α secretion in RAW264.7 cells, ELISA; format: cell-based, murine; conditions: for inhibition of secretion of TLR9-induced TNF-α: in the presence of ODN 2395, 1, 10 or 50 μM, ELISA (FIG. 7B and 7C)
T1 construct: host or cells: RAW264.7 murine macrophages
T1 sequence (Q9EQU3 26-1032): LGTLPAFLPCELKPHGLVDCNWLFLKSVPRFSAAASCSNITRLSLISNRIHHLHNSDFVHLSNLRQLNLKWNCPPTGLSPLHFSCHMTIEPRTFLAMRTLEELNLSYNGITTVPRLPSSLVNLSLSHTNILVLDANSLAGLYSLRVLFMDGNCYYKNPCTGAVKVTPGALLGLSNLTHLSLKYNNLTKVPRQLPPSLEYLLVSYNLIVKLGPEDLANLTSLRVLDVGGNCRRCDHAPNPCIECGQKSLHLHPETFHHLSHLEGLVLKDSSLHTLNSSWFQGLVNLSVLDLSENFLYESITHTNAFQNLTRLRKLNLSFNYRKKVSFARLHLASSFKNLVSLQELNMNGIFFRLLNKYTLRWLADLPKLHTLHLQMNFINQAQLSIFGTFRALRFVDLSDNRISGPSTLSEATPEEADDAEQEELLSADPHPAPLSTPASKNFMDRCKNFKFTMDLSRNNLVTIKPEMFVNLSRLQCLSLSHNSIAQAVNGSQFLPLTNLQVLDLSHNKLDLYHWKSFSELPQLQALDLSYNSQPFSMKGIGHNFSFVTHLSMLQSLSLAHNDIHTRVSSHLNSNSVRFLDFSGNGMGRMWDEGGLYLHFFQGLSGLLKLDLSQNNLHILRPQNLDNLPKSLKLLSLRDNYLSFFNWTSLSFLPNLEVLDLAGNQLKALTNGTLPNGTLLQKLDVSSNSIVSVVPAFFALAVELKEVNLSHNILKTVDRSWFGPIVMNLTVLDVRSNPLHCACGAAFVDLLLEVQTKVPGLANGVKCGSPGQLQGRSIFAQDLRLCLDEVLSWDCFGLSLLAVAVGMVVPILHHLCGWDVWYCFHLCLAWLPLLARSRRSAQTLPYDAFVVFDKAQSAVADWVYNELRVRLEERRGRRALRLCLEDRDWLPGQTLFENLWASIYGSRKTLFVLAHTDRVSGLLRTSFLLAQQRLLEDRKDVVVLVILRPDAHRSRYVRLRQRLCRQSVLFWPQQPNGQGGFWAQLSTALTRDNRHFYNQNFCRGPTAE
Protocol: as §1, §2
(§3) ODN 2395 was used as a ligand to activate TLR9 and IMQ was used to induce TLR7 activity. The inhibitory effects of TAC5-050 and TAC5-051 against TLR9 or TLR7 were determined. HCQ, which is known to inhibit endosomal TLRs, was used as a control group. Since the median inhibitory concentration was expected to range from 50 and 20 μM, the concentration range was set to decrease by half from the high concentration (50 μM) to the low concentration ([…]).
(§4) RAW264.7 cells (2×10^4 cells/well) were treated with small molecule compounds and HCQ for 1 hour (0.25% DMSO), incubated and then treated with ODN 2395 (0.5 μM) or IMQ (1 μg/ml) for 4 hours. Then, the ELISA for detecting mTNF-α was performed in accordance with the following protocol: • 1. Transfer samples from 96 well cell culture plate to elisa coated plate) and incubate for 2 h • 2. Treat detection antibody and incubate for 1 h • 3. Treat HRP and incubate for 30 min • 4. Treat TMB and read the samples by using micro-plate reader machine

TLR7 = molecular target: T2, TLR7 (Mus musculus, UniProt P58681); test: Inhibition of IMQ (TLR7 agonist)-induced TNF-α secretion in RAW264.7 cells, ELISA; format: cell-based, murine; conditions: for inhibition of secretion of TLR7-induced TNF-α: in the presence of IMQ, 1, 10 or 50 μM, ELISA (FIG. 7B and 7C)
T2 construct: host or cells: RAW264.7 murine macrophages
T2 sequence (P58681 27-1050): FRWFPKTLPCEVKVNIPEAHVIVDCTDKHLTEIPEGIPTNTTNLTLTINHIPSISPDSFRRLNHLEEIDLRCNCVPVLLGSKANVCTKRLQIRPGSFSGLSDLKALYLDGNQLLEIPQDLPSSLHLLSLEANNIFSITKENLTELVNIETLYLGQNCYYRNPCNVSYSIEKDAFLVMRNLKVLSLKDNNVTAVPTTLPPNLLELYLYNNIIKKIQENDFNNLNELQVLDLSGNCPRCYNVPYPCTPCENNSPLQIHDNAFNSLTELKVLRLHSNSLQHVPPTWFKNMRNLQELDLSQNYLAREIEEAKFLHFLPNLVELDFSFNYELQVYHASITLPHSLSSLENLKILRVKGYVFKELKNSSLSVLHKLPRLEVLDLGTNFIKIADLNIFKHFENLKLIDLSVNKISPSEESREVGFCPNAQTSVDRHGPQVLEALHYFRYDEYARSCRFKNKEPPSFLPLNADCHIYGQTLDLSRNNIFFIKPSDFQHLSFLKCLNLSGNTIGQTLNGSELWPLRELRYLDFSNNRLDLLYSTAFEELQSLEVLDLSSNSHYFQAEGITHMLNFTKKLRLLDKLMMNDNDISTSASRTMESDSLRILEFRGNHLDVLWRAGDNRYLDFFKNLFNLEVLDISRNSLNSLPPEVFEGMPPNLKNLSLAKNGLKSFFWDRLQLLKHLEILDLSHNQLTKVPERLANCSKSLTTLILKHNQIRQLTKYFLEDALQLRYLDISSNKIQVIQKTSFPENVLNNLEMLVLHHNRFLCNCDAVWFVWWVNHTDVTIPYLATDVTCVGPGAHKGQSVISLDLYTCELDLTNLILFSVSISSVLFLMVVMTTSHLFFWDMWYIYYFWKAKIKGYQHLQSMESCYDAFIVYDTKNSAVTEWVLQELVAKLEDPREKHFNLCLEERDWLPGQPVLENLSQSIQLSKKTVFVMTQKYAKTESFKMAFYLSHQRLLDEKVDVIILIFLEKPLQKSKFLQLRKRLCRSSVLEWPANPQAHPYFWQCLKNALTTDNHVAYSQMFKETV
Protocol: as §1, §2, §3, §4

[1] = Solubility noted during preparation; format: physicochemical; conditions: remark in the preparation example, no medium stated
Protocol: 0.5 g (4.2 mmol) of […] was dissolved in 50 ml of MC, and 2.8 g (21 mmol, 5 eq) of AlCl3 was added thereto, followed by stirring at room temperature for 1 hour. A solution of 2.28 g (12.3 mmol) of p-nitrobenzoyl chloride in 10 ml of MC was added dropwise to the reaction solution at room temperature. The mixture was stirred overnight. When the reaction was completed, the reactor containing the concentrated residue was placed in an ice bath, 30 g of ice water was added thereto, and then stirred for 1 hour. Then, the result was filtered and washed with water. The solid was dissolved in 30 mL of MC and 10 mL of MeOH, and washed with 30 mL of Sat'd NaHCO3, and the layers were separated. The MC layer was washed with water, and the organic layer was dried over MgSO4, filtered, and concentrated under reduced pressure. After refluxing in 20 ml of IPA, the result was stirred at room temperature for 1 hour and then filtered. The solid was refluxed in 20 ml of MC, stirred at room temperature for 1 hour, and filtered to prepare 85 mg of (3-nitro-phenyl)-(1H-pyrrolo[2,3-b]pyridin-3-yl)-methanone (yield: 7.5%). However, it was not easy to remove impurities, so the yield was low and solubility was also low.

Row | SMILES | cytotoxicity (MTT assay) (RAW264.7 cells) | inhibition of secretion of TLR9-induced TNF-α (TLR9; RAW264.7 cells) | inhibition of secretion of TLR7-induced TNF-α (TLR7; RAW264.7 cells) | other results
1 | O=C(c1ccc(Cl)c(F)c1)c1c[nH]c2ncccc12 [TAC5-054, (4-Chloro-3-fluoro-phenyl)-(1H-pyrrolo[2,3-b]pyridin-3-yl)-methanone] | cytotoxic | – | – | –
2 | O=C(c1ccccc1)c1cn(S(=O)(=O)c2ccccc2)c2ncccc12 [TAC5-051, (1-Benzenesulfonyl-1H-pyrrolo[2,3-b]pyridin-3-yl)-phenyl-methanone] | non-cytotoxic | inhibited the secretion of TLR7- or TLR9-induced TNF-α in a dose-dependent manner | inhibited the secretion of TLR7- or TLR9-induced TNF-α in a dose-dependent manner | IC50 (TLR9; RAW264.7 cells, compound 1 hour, then ODN 2395 (0.5 μM) 4 hours, mTNF-α ELISA (FIG. 8), read-out: IC50 for TLR9): 13.8 µM; IC50 (TLR7; RAW264.7 cells, compound 1 hour, then IMQ (1 μg/ml) 4 hours, mTNF-α ELISA (FIG. 9), read-out: IC50 for TLR7): 10.8 µM
3 | O=C(c1ccccc1)c1c[nH]c2ncc(Cl)cc12 [TAC5-055, (5-Chloro-1H-pyrrolo[2,3-b]pyridin-3-yl)-phenyl-methanone] | cytotoxic | – | – | –
4 | O=C(c1cccc([N+](=O)[O-])c1)c1c[nH]c2ncccc12 [TAC5-052, (3-Nitro-phenyl)-(1H-pyrrolo[2,3-b]pyridin-3-yl)-methanone] | cytotoxic | – | – | solubility [1]: low
5 | O=C(c1ccc(Cl)c(Cl)c1)c1c[nH]c2ncccc12 [TAC5-053, (3,4-Dichloro-phenyl)-(1H-pyrrolo[2,3-b]pyridin-3-yl)-methanone] | cytotoxic | – | – | –
6 | CC(C)n1cc(C(=O)c2ccccc2)c2cccnc21 [TAC5-050, (1-Isopropyl-1H-pyrrolo[2,3-b]pyridin-3-yl)-phenyl-methanone] | non-cytotoxic | inhibited the secretion of TLR7- or TLR9-induced TNF-α in a dose-dependent manner | inhibited the secretion of TLR7- or TLR9-induced TNF-α in a dose-dependent manner | IC50 (TLR9): 53.1 µM; IC50 (TLR7): 24 µM
